From patent EP0132540A1 (priority 1981, dated 1983)
In brackets after ≈: the same amount, converted by molar mass.

Key:
Acute toxicity in mice = experiment: Acute toxicity in mice; parameters: species or system ddy male mice; conditions: mouse, in vivo, suspended in 5% Arabic gum solution, mortality observed for 7 days
Description: Experimental Example 7: Acute Toxicity in Mice
Each compound of the invention was suspended in 5% Arabic gum solution and given orally (p.o.) or intraperitoneally (i.p.) to groups of ten ddy male mice weighed from 24 to 26 g at the dosage volume of 10 ml/kg. […] LD50 was determined according to the method of Wilcoxon and Litchfield.

[1] = Physicochemical properties (qualitative solubility); conditions: qualitative solubility in solvents
Coxsackie Type B5 = experiment: microbe, parasite or virus in culture; assay type: cell-based; conditions: Virus G = Coxsackie Type B5
Parainfluenza Type 3 = experiment: microbe, parasite or virus in culture; assay type: cell-based; conditions: Virus E = Parainfluenza Type 3
influenza A0 virus = experiment: Protective action against the death of mice infected with influenza A0 virus; assay type: in vivo, ICR female mice; conditions: for Survival rate: twice a day for 14 days, survivors at 15th day
Source text: Experimental Example 2 Protective Action against the Death of Mice. Infected with Influenza A0 Virus,
After the influenza A0 virus was inoculated to groups each -consisting of ten ICR female mice (16 - 18 g) intranasally under light anesthesia with ether, compound of the invention was given orally or intraperitoneally as multiple doses of twice a day starting one hour after infection and continued for 14 days. The result of the treatment was shown as the increase in percentage of survivors at 15th day.

Influenza B = experiment: microbe, parasite or virus in culture; assay type: cell-based
Rhino = experiment: microbe, parasite or virus in culture; assay type: cell-based
Influenza A1 = experiment: microbe, parasite or virus in culture; assay type: cell-based
ECHO = experiment: microbe, parasite or virus in culture; assay type: cell-based
Influenza A0 = experiment: microbe, parasite or virus in culture; assay type: cell-based; conditions: Virus A = Influenza A0, MDCK, Vero and HEL cells
influenza virus B/GL = assay type: in vivo, ICR female mice; conditions: result in words, oral
[2] = ip, Intra-peritoneal administration

SMILES	LD50 at 168 h (Acute toxicity in mice; [2])	LD50 at 168 h (Acute toxicity in mice; Oral administration)	Property (solubility) [1]	MIC (Coxsackie Type B5)	MIC (Parainfluenza Type 3)	Survival rate (influenza A0 virus; intraperitoneal, 100 mg/kg)	Survival rate (influenza A0 virus; oral, 300 mg/kg)	MIC (Influenza B)	MIC (Rhino)	MIC (Influenza A1)	MIC (ECHO)	MIC (Influenza A0)	Survival rate (influenza A0 virus; intraperitoneal, 10 mg/kg)	Survival rate (influenza A0 virus; intraperitoneal, 30 mg/kg)	Survival rate (influenza A0 virus; oral, 30 mg/kg)	Survival rate (influenza A0 virus; oral, 100 mg/kg)	protective action against death due to the infection (influenza A0 virus; result in words, oral or intraperitoneal)	survival rates of the treated groups as compared with that of the control (influenza virus B/GL)
O=C(O)c1ccc(Cl)c(S(=O)(=O)Nc2ccccc2)c1 [Compound 5, 3-anilinosulfonyl-4-chlorobenzoic acid]	968 mg/kg	> 3000 mg/kg	white crystalline powder; insoluble in benzene, hexane; soluble in hot water, methanol	100 µg/mL (≈ 321 µM)	300 µg/mL (≈ 962 µM)	40%	40%	300 µg/mL (≈ 962 µM)	300 µg/mL (≈ 962 µM)	300 µg/mL (≈ 962 µM)	300 µg/mL (≈ 962 µM)	30 µg/mL (≈ 96.2 µM)						
CC(C)NS(=O)(=O)c1cc(C(=O)O)ccc1Cl [Compound 4, 4-chloro-3-isopropyl-aminoslfonylbenzoic acid]	> 1000 mg/kg	> 3000 mg/kg	white crystalline powder; insoluble in benzene, hexane; soluble in hot water, methanol	300 µg/mL (≈ 1080 µM)	300 µg/mL (≈ 1080 µM)	40%	40%	300 µg/mL (≈ 1080 µM)	300 µg/mL (≈ 1080 µM)	100 µg/mL (≈ 360 µM)	300 µg/mL (≈ 1080 µM)	30 µg/mL (≈ 108 µM)						
CC(C)OC(=O)c1ccc(Br)c(S(N)(=O)=O)c1 [Compound 9, 3-aminosulfonyl-4-bromo-isopropylbenzoate]	> 1000 mg/kg	> 3000 mg/kg																
COC(=O)c1ccc(F)c(S(N)(=O)=O)c1 [Compound 8, 3-aminosulfonyl-4-fluoromethylbenzoate]	> 1000 mg/kg	> 3000 mg/kg																
CNS(=O)(=O)c1cc(C(=O)O)ccc1Cl [Compound 1, 4-chloro-3-methylamino-sulfonylbenzoic acid]	> 1000 mg/kg	> 3000 mg/kg	white crystalline powder; insoluble in benzene, hexane; soluble in hot water, methanol	100 µg/mL (≈ 401 µM)	300 µg/mL (≈ 1200 µM)	40%	50%	300 µg/mL (≈ 1200 µM)	300 µg/mL (≈ 1200 µM)	300 µg/mL (≈ 1200 µM)	300 µg/mL (≈ 1200 µM)	30 µg/mL (≈ 120 µM)						
C=CCOC(=O)c1cc(S(N)(=O)=O)c(Cl)cc1Cl [Compound 11, 5-aminosulfonyl-2,4-dichloro-allylbenzoate]	> 1000 mg/kg	> 3000 mg/kg																
NS(=O)(=O)c1cc(C(=O)O)c(Cl)cc1Cl [Compound 7, 5-aminosulfonyl-2,4-dichlorobenzoic acid]	> 1000 mg/kg	> 3000 mg/kg	white crystalline powder; insoluble in benzene, hexane; soluble in hot water, methanol	100 µg/mL (≈ 370 µM)	100 µg/mL (≈ 370 µM)			100 µg/mL (≈ 370 µM)	100 µg/mL (≈ 370 µM)	300 µg/mL (≈ 1110 µM)	100 µg/mL (≈ 370 µM)	10 µg/mL (≈ 37 µM)	40%	50%	40%	60%	extremely excellent activity	
CCCCOC(=O)c1ccc(Br)c(S(N)(=O)=O)c1 [Compound 10, 3-aminosulfonyl-4-bromo-n-butylbenzoate]	> 1000 mg/kg	> 3000 mg/kg																extremely excellent activity
CCNS(=O)(=O)c1cc(C(=O)O)ccc1Cl [Compound 2, 4-chloro-3-ethylamino-sulfonylbenzoic acid]	> 1000 mg/kg	> 3000 mg/kg	white crystalline powder; insoluble in benzene, hexane; soluble in hot water, methanol	300 µg/mL (≈ 1140 µM)	300 µg/mL (≈ 1140 µM)	40%	50%	300 µg/mL (≈ 1140 µM)	300 µg/mL (≈ 1140 µM)	300 µg/mL (≈ 1140 µM)	300 µg/mL (≈ 1140 µM)	30 µg/mL (≈ 114 µM)						
CN(C)S(=O)(=O)c1cc(C(=O)O)ccc1Cl [Compound 3, 4-chloro-3-dimethyl-aminosulfonylbenzoic acid]	> 1000 mg/kg	> 3000 mg/kg	white crystalline powder; insoluble in benzene, hexane; soluble in hot water, methanol	300 µg/mL (≈ 1140 µM)	300 µg/mL (≈ 1140 µM)	40%	50%	300 µg/mL (≈ 1140 µM)	300 µg/mL (≈ 1140 µM)	300 µg/mL (≈ 1140 µM)	300 µg/mL (≈ 1140 µM)	30 µg/mL (≈ 114 µM)						
O=C(O)c1ccc(Cl)c(S(=O)(=O)N2CCOCC2)c1 [Compound 6, 4-chloro-3-morpholino-sulfonylbenzoic acid]	> 1000 mg/kg	> 3000 mg/kg	white crystalline powder; insoluble in benzene, hexane; soluble in hot water, methanol	300 µg/mL (≈ 981 µM)	300 µg/mL (≈ 981 µM)	50%	50%	300 µg/mL (≈ 981 µM)	300 µg/mL (≈ 981 µM)	300 µg/mL (≈ 981 µM)	100 µg/mL (≈ 327 µM)	30 µg/mL (≈ 98.1 µM)						
